Key:
CDK2/Cyclin A2 = CDK2/Cyclin A2 (Homo sapiens, UniProt P24941); assay: Inhibition of full length human recombinant CDK2/Cyclin A using histone H1 as substrate incubated for 40 mins in presence of [gamma-33ATP] by radiometric scintillation counting analysis; assay type: protein-complex assay
HepG2 [1] = assay: Induction of cell cycle arrest in human HepG2 cells assessed as accumulation at G2/M phase at 0.5 uM incubated for 24 hrs by propidium iodide staining based flow cytometry (reference value: 33.49%); assay type: functional
HepG2 [2] = assay: Induction of cell cycle arrest in human HepG2 cells assessed as accumulation at G0/G1 phase at 16 uM incubated for 24 hrs by propidium iodide staining based flow cytometry (reference value: 38.34%); assay type: functional
HepG2 [3] = assay: Induction of cell cycle arrest in human HepG2 cells assessed as accumulation at S phase at 16 uM incubated for 24 hrs by propidium iodide staining based flow cytometry (reference value: 33.27%); assay type: functional
HepG2 [4] = assay: Induction of cell cycle arrest in human HepG2 cells assessed as accumulation at S phase at 2 uM incubated for 24 hrs by propidium iodide staining based flow cytometry (reference value: 33.27%); assay type: functional
HepG2 [5] = assay: Induction of cell cycle arrest in human HepG2 cells assessed as accumulation at G2/M phase at 8 uM incubated for 24 hrs by propidium iodide staining based flow cytometry (reference value: 33.49%); assay type: functional
HepG2 [6] = assay: Induction of cell cycle arrest in human HepG2 cells assessed as accumulation at S phase at 0.5 uM incubated for 24 hrs by propidium iodide staining based flow cytometry (reference value: 33.27%); assay type: functional
HepG2 [7] = assay: Induction of cell cycle arrest in human HepG2 cells assessed as accumulation at S phase at 8 uM incubated for 24 hrs by propidium iodide staining based flow cytometry (reference value: 33.27%); assay type: functional
[8] = molecular target: T1, Mitogen-activated protein kinase kinase kinase 6 (Homo sapiens, UniProt O95382); assay: Inhibition of ASK2 (unknown origin)
T1 sequence (O95382 whole entry): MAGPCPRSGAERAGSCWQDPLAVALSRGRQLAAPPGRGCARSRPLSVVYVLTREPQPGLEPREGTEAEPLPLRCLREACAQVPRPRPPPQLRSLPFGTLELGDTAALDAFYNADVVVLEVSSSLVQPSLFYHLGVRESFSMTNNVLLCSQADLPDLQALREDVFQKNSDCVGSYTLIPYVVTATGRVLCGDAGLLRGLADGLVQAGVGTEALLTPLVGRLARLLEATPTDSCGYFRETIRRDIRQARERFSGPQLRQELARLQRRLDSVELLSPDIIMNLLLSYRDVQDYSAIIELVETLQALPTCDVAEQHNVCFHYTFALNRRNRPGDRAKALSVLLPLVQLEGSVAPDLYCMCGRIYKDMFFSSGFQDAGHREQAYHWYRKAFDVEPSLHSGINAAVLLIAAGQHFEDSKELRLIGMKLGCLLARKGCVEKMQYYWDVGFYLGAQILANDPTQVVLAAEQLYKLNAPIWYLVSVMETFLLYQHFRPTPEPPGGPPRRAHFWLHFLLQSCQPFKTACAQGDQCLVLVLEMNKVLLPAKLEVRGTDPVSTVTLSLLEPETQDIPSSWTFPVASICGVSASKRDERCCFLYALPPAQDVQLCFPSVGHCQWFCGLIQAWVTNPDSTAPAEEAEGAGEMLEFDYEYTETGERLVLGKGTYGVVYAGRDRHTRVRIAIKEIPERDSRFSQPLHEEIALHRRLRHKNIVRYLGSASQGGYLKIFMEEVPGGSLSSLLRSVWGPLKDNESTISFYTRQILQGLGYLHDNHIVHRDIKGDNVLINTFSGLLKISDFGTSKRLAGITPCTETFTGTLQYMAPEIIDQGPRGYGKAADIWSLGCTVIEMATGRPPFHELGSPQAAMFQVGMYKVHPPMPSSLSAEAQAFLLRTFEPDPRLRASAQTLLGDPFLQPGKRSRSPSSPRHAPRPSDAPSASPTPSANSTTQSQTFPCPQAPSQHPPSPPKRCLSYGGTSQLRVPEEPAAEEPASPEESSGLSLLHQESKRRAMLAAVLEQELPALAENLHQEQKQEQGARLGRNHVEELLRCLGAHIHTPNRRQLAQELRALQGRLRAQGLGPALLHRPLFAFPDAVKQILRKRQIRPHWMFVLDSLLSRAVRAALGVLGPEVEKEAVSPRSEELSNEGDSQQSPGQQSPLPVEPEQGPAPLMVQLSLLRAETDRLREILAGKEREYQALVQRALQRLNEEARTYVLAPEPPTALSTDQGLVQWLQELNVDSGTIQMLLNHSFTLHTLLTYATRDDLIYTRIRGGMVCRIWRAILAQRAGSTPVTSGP

CDK3/Cyclin E = CDK3/Cyclin E (Homo sapiens, UniProt Q00526); assay: Inhibition of full length human recombinant CDK3/Cyclin E using histone H1 as substrate incubated for 40 mins in presence of [gamma-33ATP] by radiometric scintillation counting analysis; assay type: protein-complex assay
HepG2 [9] = assay: Induction of cell cycle arrest in human HepG2 cells assessed as accumulation at G0/G1 phase at 4 uM incubated for 24 hrs by propidium iodide staining based flow cytometry (reference value: 38.34%); assay type: functional
HepG2 [10] = assay: Induction of cell cycle arrest in human HepG2 cells assessed as accumulation at G0/G1 phase at 2 uM incubated for 24 hrs by propidium iodide staining based flow cytometry (reference value: 38.34%); assay type: functional
HepG2 [11] = assay: Induction of cell cycle arrest in human HepG2 cells assessed as accumulation at S phase at 1 uM incubated for 24 hrs by propidium iodide staining based flow cytometry (reference value: 33.27%); assay type: functional

CDK3/Cyclin E, sequence (P24864 whole entry): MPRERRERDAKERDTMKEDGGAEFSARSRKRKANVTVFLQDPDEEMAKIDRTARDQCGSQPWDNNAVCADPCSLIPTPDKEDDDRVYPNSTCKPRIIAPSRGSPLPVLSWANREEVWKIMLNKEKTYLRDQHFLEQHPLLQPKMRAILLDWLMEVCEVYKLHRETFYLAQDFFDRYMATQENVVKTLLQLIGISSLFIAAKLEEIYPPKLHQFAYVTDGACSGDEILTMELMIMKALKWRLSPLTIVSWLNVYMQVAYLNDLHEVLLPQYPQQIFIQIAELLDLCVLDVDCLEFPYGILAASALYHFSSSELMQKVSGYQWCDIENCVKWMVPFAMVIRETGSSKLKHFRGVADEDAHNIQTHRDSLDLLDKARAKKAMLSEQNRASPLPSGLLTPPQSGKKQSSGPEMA
CDK3/Cyclin E, sequence (Q00526 whole entry): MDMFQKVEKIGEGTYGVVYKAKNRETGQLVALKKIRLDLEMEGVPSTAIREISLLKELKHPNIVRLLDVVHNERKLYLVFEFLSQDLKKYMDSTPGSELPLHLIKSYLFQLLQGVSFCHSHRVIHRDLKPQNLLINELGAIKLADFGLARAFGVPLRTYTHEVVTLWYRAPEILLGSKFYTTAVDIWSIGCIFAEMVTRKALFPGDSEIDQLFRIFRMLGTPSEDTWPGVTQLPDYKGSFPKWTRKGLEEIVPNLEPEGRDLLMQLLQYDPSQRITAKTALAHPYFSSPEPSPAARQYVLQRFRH

C[C@H](CO)n1cnnc1-c1cccc(NC(=O)Nc2cc3ccccn3n2)n1
IC50 (CDK2/Cyclin A2): 0.352 µM | Activity (HepG2 [1]): 27.33% | Activity (HepG2 [2]): 69.77% | Activity (HepG2 [3]): 9.63% | Activity (HepG2 [4]): 7.15% | Activity (HepG2 [5]): 35.02% | Activity (HepG2 [6]): 31.94% | Activity (HepG2 [7]): 8.95% | IC50 [8]: 5.29 µM | IC50 (CDK3/Cyclin E): 0.117 µM | Activity (HepG2 [9]): 66.33% | Activity (HepG2 [10]): 63.79% | Activity (HepG2 [11]): 11.7%
